Measurements reported in paper PMC10005185, “Structure-guided engineering of a receptor-agonist pair for inducible activation of the ABA adaptive response to drought” (Science Advances, 2023).
Several values for one entry are separate records, joined by “and”; a condition that tells them apart may be missing. Equal values may be shown once.

Key:
AtHAB1ΔN with CsPYL1^5m [1] = molecular target: AtHAB1ΔN with CsPYL1^5m (Citrus sinensis, UniProt A0A067E666, F137I/T135L/T153I/V112L/V168A); assay: PP2C inhibition assay, HAB1 with CsPYL1^5m; assay type: biochemical, Citrus sinensis (CsPYL1^5m); Arabidopsis thaliana (HAB1); details: IC50 for inhibition of HAB1 (ΔNHAB1) in the presence of CsPYL1^5m, pNPP as substrate
Procedure: (§1) His-tagged receptors and phosphatases were purified using nickel–nitrilotriacetic acid (Ni-NTA) affinity chromatography. Protein integrity was analyzed by SDS–polyacrylamide gel electrophoresis, followed by InstantBlue staining. Phosphatase activity was measured using p-Nitrophenyl Phosphate (pNPP) (25 mM) as substrate, 10 mM MnCl2,1 μM PP2C, and 2 μM of the indicated receptors. […] Assays were repeated twice. For dose-response experiments, IC50 values were obtained with GraphPad Prism 9 using a nonlinear regression curve fit. Each ligand concentration was tested in triplicate. Phosphatase activity of ABI1 was measured using RRA(phosphoT)VA peptide as a substrate, as described ([27]).

AtHAB1ΔN with CsPYL1^5m [2] = assay: PP2C inhibition assay, HAB1 with CsPYL1^5m; assay type: biochemical, Citrus sinensis (CsPYL1^5m); Arabidopsis thaliana (HAB1); details: lower for the synthetic receptor
Procedure: as §1

[3] = system: Arabidopsis thaliana seedlings; assay: Root growth assay; assay type: in vivo; details: for reduction of root growth: 50 μM SB
Procedure: Seedlings were grown on vertically oriented Murashige and Skoog (MS) plates for 4 to 5 days. Afterward, seedlings were transferred to MS supplemented with the indicated concentrations of the different ligands and kept on vertical orientation. Ten days later, the plates were scanned on a flatbed scanner to produce image files suitable for quantitative analysis of root growth using the NIH Image software ImageJ. The experiment was performed in triplicate (n = 13 to 16). Statistical comparisons were performed by either pairwise t tests or one-way ANOVA using GraphPad Prism 9.

AtHAB1ΔN with CsPYL1 = assay: PP2C inhibition assay, HAB1 with CsPYL1; assay type: biochemical, Citrus sinensis (CsPYL1); Arabidopsis thaliana (HAB1); details: fig. S1C; AtPYL5, AtPYL10 and PYL1-like receptors
Procedure: as §1

[4] = system: Arabidopsis thaliana seedlings (WT Col-0, overexpressing lines, receptor mutants); assay: Seedling establishment assay; assay type: in vivo
Procedure: Seedling establishment was scored as the percentage of seeds that developed green expanded cotyledons and the first pair of true leaves at 5 or 7 days. Seedling establishment assays in the presence of ABA receptor agonists were performed in 24-well plates, where approximately 25 to 35 seeds per well were sown. Each well contained a different treatment. The experiment was repeated at least twice.

ΔNHAB1 with AtPYL10 [5] = molecular target: T1, ΔNHAB1 with AtPYL10 (Arabidopsis thaliana, UniProt Q8H1R0); assay: PP2C inhibition assay, HAB1 with AtPYL10; assay type: biochemical
T1 construct: His; made in house
Procedure: (§2) His-tagged receptors and phosphatases were purified using nickel–nitrilotriacetic acid (Ni-NTA) affinity chromatography. Protein integrity was analyzed by SDS–polyacrylamide gel electrophoresis, followed by InstantBlue staining. Phosphatase activity was measured using p-Nitrophenyl Phosphate (pNPP) (25 mM) as substrate, 10 mM MnCl2,1 μM PP2C, and 2 μM of the indicated receptors. Proteins were incubated with the ligands for 10 min at room temperature. pNPP was then added to start the reactions, and the absorbance at 405 nm was monitored for 20 min in a ViktorX5 plate reader. Assays were repeated twice. For dose-response experiments, IC50 values were obtained with GraphPad Prism 9 using a nonlinear regression curve fit. Each ligand concentration was tested in triplicate. Phosphatase activity of ABI1 was measured using RRA(phosphoT)VA peptide as a substrate, as described ([27]).

ΔNHAB1 with AtPYL10 [6] = assay: PP2C inhibition assay, HAB1 with AtPYL10; assay type: biochemical, Arabidopsis thaliana; details: more sensitive
Procedure: as §2

ΔNHAB1 with AtPYL1 = molecular target: T2, ΔNHAB1 with AtPYL1 (Arabidopsis thaliana, UniProt Q8VZS8); assay: PP2C inhibition assay, HAB1 with AtPYL1; assay type: biochemical
T2 construct: His; made in house
Procedure: as §2

HAB1 with SlPYL1 = assay: PP2C inhibition assay, HAB1 with SlPYL1; assay type: biochemical, Solanum lycopersicum (SlPYL1); Arabidopsis thaliana (HAB1); details: 100 μM SB
Procedure: as §2

ΔNHAB1 with AtPYL5 = molecular target: T3, ΔNHAB1 with AtPYL5 (Arabidopsis thaliana, UniProt Q9FLB1); assay: PP2C inhibition assay, HAB1 with AtPYL5; assay type: biochemical
T3 construct: His; made in house
Procedure: as §2

[7] = read-out: inhibition of HAB1 phosphatase activity

T1 sequence (Q8H1R0 whole entry, stated change not applied): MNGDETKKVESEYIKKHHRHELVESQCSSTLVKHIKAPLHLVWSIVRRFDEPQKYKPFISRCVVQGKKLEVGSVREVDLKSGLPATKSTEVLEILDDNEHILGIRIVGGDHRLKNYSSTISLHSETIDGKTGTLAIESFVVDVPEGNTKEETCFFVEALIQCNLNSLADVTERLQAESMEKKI
T3 sequence (Q9FLB1 whole entry, stated change not applied): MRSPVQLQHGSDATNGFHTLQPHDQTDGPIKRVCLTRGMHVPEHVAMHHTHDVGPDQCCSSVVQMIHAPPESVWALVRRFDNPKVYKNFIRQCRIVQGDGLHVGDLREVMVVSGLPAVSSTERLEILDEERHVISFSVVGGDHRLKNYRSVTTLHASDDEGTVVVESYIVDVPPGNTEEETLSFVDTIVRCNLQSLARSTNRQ
AtHAB1ΔN with CsPYL1^5m (Citrus sinensis, UniProt A0A067E666, F137I/T135L/T153I/V112L/V168A), sequence (A0A067E666 1-209 V112L/T135L/F137I/T153I/V168A): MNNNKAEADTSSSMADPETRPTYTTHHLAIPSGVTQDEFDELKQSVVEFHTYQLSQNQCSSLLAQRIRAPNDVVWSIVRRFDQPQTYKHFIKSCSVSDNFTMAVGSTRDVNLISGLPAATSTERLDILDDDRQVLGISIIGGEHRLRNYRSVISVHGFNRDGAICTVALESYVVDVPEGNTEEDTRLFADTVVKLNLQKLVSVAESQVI
AtHAB1ΔN with CsPYL1^5m (Citrus sinensis, UniProt A0A067E666, F137I/T135L/T153I/V112L/V168A), sequence (Q9CAJ0 179-511 partner): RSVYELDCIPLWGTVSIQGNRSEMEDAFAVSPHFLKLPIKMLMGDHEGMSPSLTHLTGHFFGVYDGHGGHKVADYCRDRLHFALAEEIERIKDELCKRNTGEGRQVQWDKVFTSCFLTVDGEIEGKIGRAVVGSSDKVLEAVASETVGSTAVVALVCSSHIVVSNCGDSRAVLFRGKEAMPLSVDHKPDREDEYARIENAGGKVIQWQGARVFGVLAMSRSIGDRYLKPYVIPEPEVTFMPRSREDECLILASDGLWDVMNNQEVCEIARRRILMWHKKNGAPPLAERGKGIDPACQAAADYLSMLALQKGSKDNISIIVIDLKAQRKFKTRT
T2 sequence (Q8VZS8 whole entry, stated change not applied): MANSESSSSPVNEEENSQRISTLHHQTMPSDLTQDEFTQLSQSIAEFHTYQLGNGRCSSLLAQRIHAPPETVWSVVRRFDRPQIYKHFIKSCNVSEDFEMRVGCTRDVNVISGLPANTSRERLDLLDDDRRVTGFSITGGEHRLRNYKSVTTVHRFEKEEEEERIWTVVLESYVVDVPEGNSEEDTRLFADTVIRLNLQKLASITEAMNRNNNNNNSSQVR

Structure (SMILES): Cc1cc(=O)n(C)c2ccc(S(=O)(=O)NCc3ccccc3)cc12 [SB, N-benzyl-1,4-dimethyl-2-oxo-1,2-dihydroquinoline-6-sulfonamide]
- IC50 (AtHAB1ΔN with CsPYL1^5m [1]): 877 nM and 876 nM
- IC50 of SB for CsPYL1^5m relative to WT CsPYL1 (AtHAB1ΔN with CsPYL1^5m [2]): 12 fold
- reduction of root growth ([3]; PYL5- and PYL10-overexpressing lines): 40%
- reduction of root growth ([3]; WT seedlings): 20%
- effect on root growth ([3]; sextuple 112458 mutant): resistant
- inhibition of HAB1 activity by candidate molecules of the in silico screening (AtHAB1ΔN with CsPYL1): able to inhibit HAB1 activity
- inhibition of seedling establishment ([4]; 35S:CsPYL1^5m lines, 10 μM SB): sensitive
- inhibition of seedling establishment ([4]; 35S:CsPYL1 lines, even by 100 μM SB): not affected
- dosage required to inhibit seedling establishment relative to ABA ([4]; CsPYL1^5m lines, higher than ABA): 20 fold
- inhibition of seedling establishment ([4]; PYL5- and PYL10-overexpressing lines, 50 to 100 μM SB): reduced the seedling establishment
- inhibition of seedling establishment ([4]; WT seeds, even at 100 μM): not active
- IC50 of SB relative to IC50 of ABA (ΔNHAB1 with AtPYL10 [5]; AtPYL10): fourfold higher
- IC50 (ΔNHAB1 with AtPYL10 [5]; Fig. 1B, read-out: IC50 for SB-dependent inhibition of ΔNHAB1 by AtPYL10): 506 ± 56 nM
- inhibition at 100 µM (ΔNHAB1 with AtPYL10 [5]; [7]): > 75%
- sensitivity to SB of PYL10 relative to PYL1 members (ΔNHAB1 with AtPYL10 [6]): 20 fold
- IC50 (ΔNHAB1 with AtPYL1; Fig. 1B, read-out: IC50 for SB-dependent inhibition of ΔNHAB1 by AtPYL1): 10100 ± 1990 nM
- IC50 of SB relative to IC50 of ABA (ΔNHAB1 with AtPYL1; PYL1, higher than ABA): circa 30 fold
- reduction of phosphatase activity (HAB1 with SlPYL1): around 50%
- IC50 (ΔNHAB1 with AtPYL5; Fig. 1B, read-out: IC50 for SB-dependent inhibition of ΔNHAB1 by AtPYL5): 877 ± 6 nM
- IC50 of SB relative to IC50 of ABA (ΔNHAB1 with AtPYL5; PYL5, higher than ABA): circa 30 fold
- inhibition at 100 µM (ΔNHAB1 with AtPYL5; [7]): > 75%
